Here are results for 25 compounds from the Kinase Knowledgebase extract (Sharma et al. 2016).

“And” between values parts separate entries of the source, which are not always exact repeats. Equal values may be shown once.

By IC50 is commonly meant the concentration that inhibits the measured activity by half. High values mean lower potency, low ones higher potency.

Assay [1] concerns the target EGFR (human) (UniProt P00533). To be noted: a431.
Assay [2] concerns the target EGFR (human) (UniProt P00533).

EGFR (human), sequence (P00533 whole entry, looked up): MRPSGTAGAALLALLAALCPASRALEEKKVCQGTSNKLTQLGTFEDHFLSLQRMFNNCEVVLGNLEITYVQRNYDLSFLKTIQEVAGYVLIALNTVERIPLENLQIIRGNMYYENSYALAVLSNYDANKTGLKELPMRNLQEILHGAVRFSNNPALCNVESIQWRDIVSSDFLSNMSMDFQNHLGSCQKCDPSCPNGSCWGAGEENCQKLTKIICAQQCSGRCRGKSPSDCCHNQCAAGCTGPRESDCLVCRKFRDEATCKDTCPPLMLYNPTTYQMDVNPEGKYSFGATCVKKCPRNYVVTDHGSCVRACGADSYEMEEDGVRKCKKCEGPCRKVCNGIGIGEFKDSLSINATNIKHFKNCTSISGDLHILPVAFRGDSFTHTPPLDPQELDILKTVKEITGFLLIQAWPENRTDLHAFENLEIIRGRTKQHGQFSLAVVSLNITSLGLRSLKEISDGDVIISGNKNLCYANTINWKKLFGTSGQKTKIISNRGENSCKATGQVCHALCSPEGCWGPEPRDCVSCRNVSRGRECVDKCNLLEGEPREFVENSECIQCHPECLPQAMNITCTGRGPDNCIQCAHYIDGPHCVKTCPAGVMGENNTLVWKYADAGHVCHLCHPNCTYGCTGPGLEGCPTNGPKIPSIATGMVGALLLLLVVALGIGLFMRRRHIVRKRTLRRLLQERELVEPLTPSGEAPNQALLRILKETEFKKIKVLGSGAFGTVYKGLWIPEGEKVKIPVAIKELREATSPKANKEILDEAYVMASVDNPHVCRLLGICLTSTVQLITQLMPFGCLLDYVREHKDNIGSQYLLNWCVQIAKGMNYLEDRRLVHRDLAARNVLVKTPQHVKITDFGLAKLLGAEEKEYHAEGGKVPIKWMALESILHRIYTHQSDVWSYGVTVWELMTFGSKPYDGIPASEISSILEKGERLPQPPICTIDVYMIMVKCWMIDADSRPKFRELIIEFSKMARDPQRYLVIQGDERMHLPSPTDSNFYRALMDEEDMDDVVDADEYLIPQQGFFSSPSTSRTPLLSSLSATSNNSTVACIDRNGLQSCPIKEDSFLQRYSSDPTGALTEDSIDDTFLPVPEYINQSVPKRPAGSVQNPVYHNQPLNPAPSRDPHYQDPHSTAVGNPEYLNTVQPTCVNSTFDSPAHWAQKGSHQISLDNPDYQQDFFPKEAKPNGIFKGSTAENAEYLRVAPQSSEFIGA

Consider `O=C(Cn1ccc(-c2ccc3ncnc(Nc4ccc(OCc5cccc(F)c5)c(Cl)c4)c3c2)c1)N1CCN(CC2CC2)CC1`, for which the IC50 is 1980 nM on EGFR (human) [1] and 443 nM against EGFR (human) [2].
`O=C1OCCc2cn(-c3ccc4ncnc(Nc5ccc(OCc6cccc(F)c6)c(Cl)c5)c4c3)cc21`: the half-inhibitory concentration (IC50) is 570 nM on EGFR (human) [1] and 5 nM against EGFR (human) [2].
Taken in the same sequence, the figures for `OC1CCN(CC(O)Cn2ccc(-c3ccc4ncnc(Nc5ccc6c(cnn6Cc6cccc(F)c6)c5)c4c3)c2)CC1` (stereo not given) were 1560 nM and 24 nM.
`CCN(CC)CCNC(=O)c1cn(-c2ccc3ncnc(Nc4ccc(OCc5cccc(F)c5)c(Cl)c4)c3c2)cc1CCO`: the half-inhibitory concentration (IC50) against EGFR (human) [1] turned out to be 680 nM; at EGFR (human) [2], 3.6 nM.
For `O=C(Cn1ccc(-c2ccc3ncnc(Nc4ccc(OCc5cccc(F)c5)c(Cl)c4)c3c2)c1)NC1CCS(=O)(=O)CC1`, the concentration for half-maximal inhibition (IC50) worked out at 3710 nM on EGFR (human) [1] and 140 nM at EGFR (human) [2].
As for `O=C1OCCc2cn(-c3ccc4ncnc(Nc5ccc(OCc6ccccn6)c(Cl)c5)c4c3)cc21`, the values for the concentration for half-maximal inhibition (IC50) against EGFR (human) [1] and on EGFR (human) [2] were 810 nM and 8 nM, respectively.
For `CC(=O)N[C@@H]1CCN(C(=O)Cn2ccc(-c3ccc4ncnc(Nc5ccc(OCc6cccc(F)c6)c(Cl)c5)c4c3)c2)C1`, the half-maximal inhibitory concentration (IC50) at EGFR (human) [1] came out at 626 nM; against EGFR (human) [2], 129 nM.
Taken in the same sequence, the figures for `Fc1cccc(COc2ccc(Nc3ncnc4ccc(-n5cc(CNCCCN6CCOCC6)c(C(F)(F)F)c5)cc34)cc2Cl)c1` were 310 nM and 43 nM.
Taken in the same sequence, the figures for `CS(=O)(=O)CCNCC(O)Cn1ccc(-c2ccc3ncnc(Nc4ccc5c(cnn5Cc5cccc(F)c5)c4)c3c2)c1` (stereo not given) were 430 nM and 1 nM.
`CN(C)[C@@H]1CCN(C(=O)Cn2ccc(-c3ccc4ncnc(Nc5ccc(OCc6cccc(F)c6)c(Cl)c5)c4c3)c2)C1`: the values for the IC50 against EGFR (human) [1] and on EGFR (human) [2] were 2590 nM and 133 nM, respectively.
Regarding `OC(CN1CCN(Cc2ccncc2)CC1)Cn1ccc(-c2ccc3ncnc(Nc4ccc5c(cnn5Cc5cccc(F)c5)c4)c3c2)c1` (stereo not given), the results for the IC50 at EGFR (human) [1] and at EGFR (human) [2] were 4200 nM and 598 nM, respectively.
Take `CN1CCN(C(=O)c2cn(-c3ccc4ncnc(Nc5ccc(OCc6cccc(F)c6)c(Cl)c5)c4c3)cc2CCO)CC1`: the IC50 turned out to be 1430 nM against EGFR (human) [1] and 5 nM against EGFR (human) [2].
In the case of `CCN(CC)CCN1CCOC(Cn2ccc(-c3ccc4ncnc(Nc5ccc6c(cnn6Cc6cccc(F)c6)c5)c4c3)c2)C1` (stereo not given), the figures for the half-inhibitory concentration (IC50) against EGFR (human) [1] and at EGFR (human) [2] were 501 nM and 248 nM, respectively.
In the case of `O=C(NCCN1CCOCC1)c1cn(-c2ccc3ncnc(Nc4ccc(OCc5ccccn5)c(Cl)c4)c3c2)cc1CCO`, the figures for the half-maximal inhibitory concentration (IC50) against EGFR (human) [1] and on EGFR (human) [2] were 25 nM and 30 nM, respectively.
In the case of `O=C(c1cn(-c2ccc3ncnc(Nc4ccc(OCc5ccccn5)c(Cl)c4)c3c2)cc1CCO)N1CCOCC1`, the IC50 on EGFR (human) [1] was found to be 50 nM; against EGFR (human) [2], 49 nM.
As to `COCCNCc1cn(-c2ccc3ncnc(Nc4ccc(OCc5cccc(F)c5)c(Cl)c4)c3c2)cc1C(F)(F)F`, the 50% inhibitory concentration (IC50) on EGFR (human) [1] worked out at 480 nM; against EGFR (human) [2], 49 nM.
For `O=C(Cn1ccc(-c2ccc3ncnc(Nc4ccc(OCc5cccc(F)c5)c(Cl)c4)c3c2)c1)N1CCOCC1` the same measures were 770 nM and 22 nM.
As for `O[C@@H](CN1CCOCC1)Cn1ccc(-c2ccc3ncnc(Nc4ccc(OCc5cccc(F)c5)c(Cl)c4)c3c2)c1`, the figures for the IC50 against EGFR (human) [1] and on EGFR (human) [2] were 320 nM and 31 nM, respectively.
Take `O[C@@H](CN1CCOCC1)Cn1ccc(-c2ccc3ncnc(Nc4ccc5c(cnn5Cc5cccc(F)c5)c4)c3c2)c1`: the IC50 stood at 733 nM on EGFR (human) [1] and 8 nM on EGFR (human) [2].
On to `O=C(NCCN1CCCC1)c1cn(-c2ccc3ncnc(Nc4ccc(OCc5cccc(F)c5)c(Cl)c4)c3c2)cc1CCO`, for which the half-maximal inhibitory concentration (IC50) against EGFR (human) [1] worked out at 160 nM; against EGFR (human) [2], 9 nM.
With `N[C@H]1CCCN(C(=O)Cn2ccc(-c3ccc4ncnc(Nc5ccc(OCc6cccc(F)c6)c(Cl)c5)c4c3)c2)C1`, the values for the concentration for half-maximal inhibition (IC50) at EGFR (human) [1] and against EGFR (human) [2] were 729 nM and 38 nM, respectively.
As for `CC(=O)NC1CCN(CC(O)Cn2ccc(-c3ccc4ncnc(Nc5ccc(OCc6cccc(F)c6)c(Cl)c5)c4c3)c2)CC1` (stereo not given), the values for the IC50 against EGFR (human) [1] and at EGFR (human) [2] were 1280 nM and 1 nM, respectively.
Turning to `Fc1cccc(COc2ccc(Nc3ncnc4ccc(-n5cc(CNCCN6CCCC6)c(C(F)(F)F)c5)cc34)cc2Cl)c1`, the results for the half-inhibitory concentration (IC50) on EGFR (human) [1] and on EGFR (human) [2] were 1040 nM and 55 nM, respectively.
With `Fc1cccc(COc2ccc(Nc3ncnc4ccc(-c5ccn(CCN6CCN(CC7CC7)CC6)c5)cc34)cc2Cl)c1`, the 50% inhibitory concentration (IC50) worked out at 1530 nM against EGFR (human) [1] and 94 nM against EGFR (human) [2].
On to `Fc1cccc(COc2ccc(Nc3ncnc4ccc(-n5cc6c(c5)C(=NOCCN5CCOCC5)CC6)cc34)cc2Cl)c1`, for which the IC50 against EGFR (human) [1] is 20 nM; at EGFR (human) [2], 86 nM and 94 nM.
